From ChEMBL document CHEMBL5352429, “Designed symmetrical β-hairpin peptides for treating multidrug-resistant salmonella typhimurium infections” (Eur J Med Chem, 2022)
≈ marks a conversion by molar mass, not a printed value. Calls of active or inactive are those of the source. The calls are words filed in the database; no cut-off is given here. Peptide text beside a SMILES is read from it.

Tests used:
[1] = Antibacterial activity against Salmonella enterica subsp. enterica serovar Choleraesuis ATCC 13312 incubated overnight by standard microtiter dilution method; format: functional
RAW264.7 [2] = test: Inhibition of LPS-stimulated IL-8 production in mouse RAW264.7 cells at 1 to 128 ug/ml incubated for 24 hrs by ELISA analysis; format: functional, cell-based; details: dose 1-128 µg/ml
Salmonella typhimurium [3] = test: Antibacterial activity against Salmonella typhimurium DT104 in the presence of CaCl2 by MH broth based assay; format: functional, Salmonella enterica subsp. enterica serovar Typhimurium; details: Salmonella enterica
Cell membrane = test: Disruption of membrane integrity in Salmonella typhimurium DT104 assessed as increase in fluorescence intensity at 0.5 to 2 times of MIC incubated for 15 mins by PI staining based flow cytometric analysis; format: subcellular; details: Salmonella enterica subsp. enterica serovar Typhimurium
Lipopolysaccharide (LPS) = test: Displacement of BODIPY-TR-cadaverine from Salmonella typhimurium LPS assessed as increase in fluorescence intensity by fluorescence spectrophotometric analysis; details: Salmonella enterica subsp. enterica serovar Typhimurium; dose 0.25-8 µg/ml
RAW264.7 [4] = test: Inhibition of LPS-stimulated IL-1beta production in mouse RAW264.7 cells at 1 to 128 ug/ml incubated for 24 hrs by ELISA analysis; format: functional, cell-based; details: dose 1-128 µg/ml
Candida albicans = test: Antifungal activity against Candida albicans ATCC 10231 incubated overnight by standard microtiter dilution method; format: functional
[5] = Antibacterial activity against Salmonella blockley CICC 21489 incubated overnight by standard microtiter dilution method; format: functional, Salmonella enterica subsp. enterica serovar Blockley; details: Salmonella enterica
[6] = test system: Staphylococcus epidermidis; test: Antibacterial activity against methicillin-resistant Staphylococcus epidermidis ATCC 12228 incubated overnight by standard microtiter dilution method; format: functional
Escherichia coli = test: Antibacterial activity against Escherichia coli O157:H7 CICC 21530 incubated overnight by standard microtiter dilution method; format: functional
Salmonella typhimurium [7] = test: Antibacterial activity against Salmonella typhimurium CICC 21483 incubated overnight by standard microtiter dilution method; format: functional, Salmonella enterica subsp. enterica serovar Typhimurium; details: Salmonella enterica
Staphylococcus aureus [8] = test: Antibacterial activity against Staphylococcus aureus ATCC 29213 incubated overnight by standard microtiter dilution method; format: functional
[9] = Antibacterial activity against Salmonella wandsworth CICC 21504 incubated overnight by standard microtiter dilution method; format: functional, Salmonella enterica subsp. enterica serovar Wandsworth; details: Salmonella enterica
Salmonella typhimurium [10] = test: Antibacterial activity against Salmonella typhimurium DT104 in the presence of FeCl3 by MH broth based assay; format: functional, Salmonella enterica subsp. enterica serovar Typhimurium; details: Salmonella enterica
Salmonella typhimurium [11] = test: Antibacterial activity against Salmonella typhimurium DT104 in the presence of NaCl by MH broth based assay; format: functional, Salmonella enterica subsp. enterica serovar Typhimurium; details: Salmonella enterica
Salmonella enteritidis = test: Antibacterial activity against Salmonella enteritidis CICC 21527 incubated overnight by standard microtiter dilution method; format: functional, Salmonella enterica subsp. enterica serovar Enteritidis; details: Salmonella enterica
RAW264.7 [12] = test: Inhibition of LPS-stimulated TNF-alpha production in mouse RAW264.7 cells at 1 to 128 ug/ml incubated for 24 hrs by ELISA analysis; format: functional, cell-based; details: dose 1-128 µg/ml
[13] = Antibacterial activity against Salmonella dublin CICC 21497 incubated overnight by standard microtiter dilution method; format: functional, Salmonella enterica subsp. enterica serovar Dublin; details: Salmonella enterica
[14] = test system: Salmonella enterica subsp. enterica serovar Paratyphi B; test: Antibacterial activity against Salmonella paratyphi B CICC 21495 incubated overnight by standard microtiter dilution method; format: functional
Salmonella paratyphi = test: Antibacterial activity against Salmonella paratyphi A CICC 21501 incubated overnight by standard microtiter dilution method; format: functional, Salmonella enterica subsp. enterica serovar Paratyphi A; details: Salmonella enterica
RAW264.7 [15] = test: Inhibition of LPS-stimulated NO production in mouse RAW264.7 cells incubated for 24 hrs by Griess reagent based analysis; format: functional, cell-based; details: dose 1-128 µg/ml
Enterococcus faecalis = test: Antibacterial activity against Enterococcus faecalis ATCC 29212 incubated overnight by standard microtiter dilution method; format: functional
Salmonella typhimurium [16] = test: Antibacterial activity against Salmonella typhimurium DT104 in the presence of MgCl2 by MH broth based assay; format: functional, Salmonella enterica subsp. enterica serovar Typhimurium; details: Salmonella enterica
Erythrocyte = test: Hemolytic activity in human Red blood cells assessed as hemolysis incubated for 1 hrs by absorbance based microplate reader analysis; format: toxicity, cell-based
Salmonella typhimurium [17] = test: Antibacterial activity against Salmonella typhimurium CICC 21913 incubated overnight by standard microtiter dilution method; format: functional, Salmonella enterica subsp. enterica serovar Typhimurium; details: Salmonella enterica
[18] = Antibacterial activity against Salmonella enterica subsp. enterica serovar Choleraesuis CICC 21493 incubated overnight by standard microtiter dilution method; format: functional
[19] = Hemolytic activity in human Red blood cells assessed as hemolysis at 128 ug/ml incubated for 1 hrs by absorbance based microplate reader analysis relative to control; format: toxicity, cell-based, Erythrocyte; details: red blood cells (erythrocytes), at 128 µg/mL, read-out: Activity
Salmonella typhimurium [20] = test: Antibacterial activity against Salmonella typhimurium DT104 in the presence of KCl by MH broth based assay; format: functional, Salmonella enterica subsp. enterica serovar Typhimurium; details: Salmonella enterica
Salmonella typhimurium [21] = test: Antibacterial activity against Salmonella typhimurium DT104 in the presence of NH4Cl by MH broth based assay; format: functional, Salmonella enterica subsp. enterica serovar Typhimurium; details: Salmonella enterica
[22] = Antibacterial activity against Salmonella paratyphi C CICC 21512 incubated overnight by standard microtiter dilution method; format: functional, Salmonella enterica subsp. enterica serovar Paratyphi C; details: Salmonella enterica
Salmonella typhimurium [23] = test: Antibacterial activity against Salmonella typhimurium DT104 in the presence 50% inactivated mouse serum by MH broth based assay; format: functional, Salmonella enterica subsp. enterica serovar Typhimurium; details: Salmonella enterica
Salmonella typhimurium [24] = test: Antibacterial activity against Salmonella typhimurium DT104 in the presence 25% inactivated mouse serum by MH broth based assay; format: functional, Salmonella enterica subsp. enterica serovar Typhimurium; details: Salmonella enterica
Salmonella typhimurium [25] = test: Antibacterial activity against Salmonella typhimurium DT104 ATCC 700408 incubated overnight by standard microtiter dilution method; format: functional, Salmonella enterica subsp. enterica serovar Typhimurium; details: Salmonella enterica
Staphylococcus aureus [26] = test: Antibacterial activity against methicillin-resistant Staphylococcus aureus ATCC 43300 incubated overnight by standard microtiter dilution method; format: functional

Structure (SMILES) | MIC [1] [µg/mL] | inhibition (RAW264.7 [2]) | MIC (Salmonella typhimurium [3]) [µg/mL] | Activity (Lipopolysaccharide (LPS)) | inhibition (RAW264.7 [4]) | MIC (Candida albicans) [µg/mL] | MIC [5] [µg/mL] | MIC [6] [µg/mL] | MIC (Escherichia coli) [µg/mL] | MIC (Salmonella typhimurium [7]) [µg/mL] | MIC (Staphylococcus aureus [8]) [µg/mL] | MIC [9] [µg/mL] | MIC (Salmonella typhimurium [10]) [µg/mL] | MIC (Salmonella typhimurium [11]) [µg/mL] | MIC (Salmonella enteritidis) [µg/mL] | MIC (Salmonella typhimurium [16]) [µg/mL] | MIC (Salmonella typhimurium [20]) [µg/mL] | MIC (Salmonella typhimurium [21]) [µg/mL] | MIC (Salmonella typhimurium [23]) [µg/mL] | MIC (Salmonella typhimurium [24]) [µg/mL] | further results
CC(C)[C@H](N)C(=O)N[C@@H](CCCCN)C(=O)N[C@H](C(=O)N[C@@H](CCCCN)C(=O)N[C@@H](CS)C(=O)N[C@H](C(=O)N[C@@H](CCCCN)C(=O)N[C@@H](CO)C(=O)NCC(=O)N[C@@H](CS)C(=O)N[C@@H](CCCCN)C(=O)N[C@H](C(=O)N[C@@H](CCCCN)C(=O)N[C@H](C(N)=O)C(C)C)C(C)C)[C@@H](C)O)C(C)C (H-VKVKCTKSGCKVKV-NH2) | 4 (≈ 2.66 µM) | Active | > 128 | Dose-Dependent Effect | Active | 16 (≈ 10.6 µM) | > 128 | > 128 | 64 (≈ 42.5 µM) | > 128 | > 128 | > 128 | > 128 | > 128 | > 128 | > 128 | > 128 | > 128 | > 128 | > 128 | Activity (Cell membrane): Active; inhibition (RAW264.7 [12]): Active; MIC [13]: > 128 µg/mL; MIC [14]: 16 µg/mL (≈ 10.6 µM); MIC (Salmonella paratyphi): > 128 µg/mL; inhibition (RAW264.7 [15]): Dose-Dependent Effect; MIC (Enterococcus faecalis): > 128 µg/mL; MHC (Erythrocyte): > 128 µg/mL; MIC (Salmonella typhimurium [17]): > 128 µg/mL; MIC [18]: > 128 µg/mL; hemolysis at 1 h, 128 ug/ml [19]: < 10%; MIC [22]: 64 µg/mL (≈ 42.5 µM); MIC (Salmonella typhimurium [25]): > 128 µg/mL; MIC (Staphylococcus aureus [26]): > 128 µg/mL
CC(C)[C@H](N)C(=O)N[C@@H](CCCCN)C(=O)N[C@@H](CS)C(=O)N[C@H](C(=O)N[C@@H](CCCCN)C(=O)N[C@@H](CO)C(=O)NCC(=O)N[C@@H](CS)C(=O)N[C@@H](CCCCN)C(=O)N[C@H](C(N)=O)C(C)C)[C@@H](C)O (H-VKCTKSGCKV-NH2) | > 128 | Active | > 128 | Dose-Dependent Effect | Active | > 128 | > 128 | > 128 | > 128 | > 128 | > 128 | > 128 | > 128 | > 128 | > 128 | > 128 | > 128 | > 128 | > 128 | > 128 | inhibition (RAW264.7 [12]): Active; MIC [13]: > 128 µg/mL; MIC [14]: > 128 µg/mL; MIC (Salmonella paratyphi): > 128 µg/mL; inhibition (RAW264.7 [15]): Dose-Dependent Effect; MIC (Enterococcus faecalis): 32 µg/mL (≈ 30.4 µM); MHC (Erythrocyte): > 128 µg/mL; MIC (Salmonella typhimurium [17]): > 128 µg/mL; MIC [18]: > 128 µg/mL; hemolysis at 1 h, 128 ug/ml [19]: < 10%; MIC [22]: > 128 µg/mL; MIC (Salmonella typhimurium [25]): > 128 µg/mL; MIC (Staphylococcus aureus [26]): > 128 µg/mL
CC(C)[C@H](NC(=O)CNC(=O)[C@H](CC(N)=O)NC(=O)CNC(=O)[C@H](Cc1ccc(O)cc1)NC(=O)[C@H](Cc1ccc(O)cc1)NC(=O)[C@@H](N)CCCCN)C(=O)N[C@@H](Cc1c[nH]cn1)C(=O)N[C@@H](CS)C(=O)N[C@H](C(=O)N[C@@H](CCCCN)C(=O)N[C@@H](CO)C(=O)NCC(=O)N[C@@H](CS)C(=O)N[C@@H](CO)C(=O)N[C@H](C(=O)N[C@@H](CC(N)=O)C(=O)N[C@@H](Cc1c[nH]c2ccccc12)C(N)=O)C(C)C)[C@@H](C)O (H-KYYGNGVHCTKSGCSVNW-NH2) | 32 (≈ 16 µM) | Active | > 128 | Dose-Dependent Effect | Active | 16 (≈ 7.99 µM) | 64 (≈ 32 µM) | 64 (≈ 32 µM) | 64 (≈ 32 µM) | 64 (≈ 32 µM) | > 128 | 64 (≈ 32 µM) | 64 | > 128 | 64 (≈ 32 µM) | 128 | 128 | 64 | > 128 | > 128 | Activity (Cell membrane): inactive; inhibition (RAW264.7 [12]): Active; MIC [13]: 32 µg/mL (≈ 16 µM); MIC [14]: 32 µg/mL (≈ 16 µM); MIC (Salmonella paratyphi): 128 µg/mL (≈ 63.9 µM); inhibition (RAW264.7 [15]): Dose-Dependent Effect; MIC (Enterococcus faecalis): > 128 µg/mL; MHC (Erythrocyte): > 128 µg/mL; MIC (Salmonella typhimurium [17]): > 128 µg/mL; MIC [18]: 128 µg/mL (≈ 63.9 µM); hemolysis at 1 h, 128 ug/ml [19]: < 10%; MIC [22]: 32 µg/mL (≈ 16 µM); MIC (Salmonella typhimurium [25]): > 128 µg/mL; MIC (Staphylococcus aureus [26]): > 128 µg/mL
CC(C)C[C@H](NC(=O)[C@H](CCCNC(=N)N)NC(=O)CNC(=O)CNC(=O)[C@@H](N)CCCNC(=N)N)C(=O)N[C@H]1CSSC[C@@H](C(=O)N[C@H](C(=O)NCC(=O)N[C@@H](CCCNC(=N)N)C(N)=O)C(C)C)NC(=O)[C@H](C(C)C)NC(=O)[C@@H]2CSSC[C@H](NC(=O)[C@H](Cc3ccc(O)cc3)NC1=O)C(=O)N[C@@H](CCCNC(=N)N)C(=O)N[C@@H](CCCNC(=N)N)C(=O)N[C@@H](CCCNC(=N)N)C(=O)N[C@@H](Cc1ccccc1)C(=O)N2 |  |  | 16 |  |  |  |  |  |  |  |  |  | 32 | 16 |  | 8 | 8 | 8 | 64 (≈ 29.7 µM) | 32 (≈ 14.8 µM) | 
